Values after ≈ are worked out from the molar mass of the structure shown. Like-named read-outs stand apart in the source and are kept apart here. Bounds are passed on as bounds.

One data set relates to Sarcoma 180 solid tumour. Type of data set: in vivo, ddy mouse. The conditions noted are these: C.I.=(LD50)/(ED50), ED50 = dose at T/C=0.5, i.v. (tail vein), 7 days. The source says: (§1) In this table, C.I. denotes chemotherapeutic index, calculated as C.I.=(LD50)/(ED50), wherein LD50 denotes the value of acute toxicity, and ED50 denotes the dose of a sample which is capable of reducing the volume of Sarcoma 180 solid tumour to 50% of the corresponding volume of the solid tumour of untreated group.
(§2) The test compound was abdominally administered once to ddy mice, each group consisting of 5 animals.
(§3) 5×10^6 cells of Sarcoma 180 solid tumour were abdominally implanted into a ddy mouse. 7 days after this, the cells were collected from the ascites fluid. The cells were washed once with physiological saline under sterile conditions and suspended in physiological saline to obtain a cell suspension containing 5×10^7 cells/ml of which 0.1 ml was implanted into a ddy male mouse (body weight 20±2 g) under the skin of the right armpit. The test compound was dissolved in physiological saline or the same solution containing Tween 80. 24 hours after implantation of the tumour cells, 0.1-0.2 ml of the solution containing the test compound was administered to the tail vein of each animal in the test group consisting of 5 animals. 7 days after the implantation, the major axis (a) and minor axis (b) of the tumour were measured to calculate the volume of the tumour as "a"×"b^2 "/2. The antitumour effect was indicated by T/C which is the ratio of the tumour volume in the test animals to the corresponding volume of the control (untreated) animals.
(§4) T/C ratios and the dose were respectively plotted on the ordinate using an arithmetic scale and on the abscissa using a logarithmic scale, the relationship between the dosage and the T/C ratio being converted to a straight line by the least squares method. From the straight tropic line thus-obtained, the dosage corresponding to a T/C=0.5 viz. ED50 was determined.

Data set [1] can be described thus: in vivo. Set-up: species or system mice (ddy strain). The settings on record: mouse, ip, ratio of dose reducing peripheral leucocytes to 4000 (per mm^3; i.p., 4 days) to ED50 (Sarcoma 180), read-out: (WBC4000)/(ED50).
From the text: as §1, §3, §4
Sarcoma 180 solid tumour cells (5×10^6) were subcutaneously implanted under the skin of the right armpit of each mouse (body weight 20±2 g) of a group consisting of 5 male mice (ddy strain). 24 hours after this, a test compound was intraperitoneally administered to each animal. 4 days later, blood (0.02 ml) was collected from the suborbital plexus vein of each tumour-carrying animal. The collected sample of blood was dispersed in 9.98 ml of Cellkit Seven solution. One drop of saponin solution was added to the sample to dissolve erythrocytes and then a microcell counter was used to measure the number of leucocytes. On graph paper, the number of leucocytes was plotted on the ordinate using an arithmetic scale, and the dosage was plotted on the abscissa using a logarithmic scale to show the relationship of the dosage to the number of peripheral leucocytes, from which the value of WBC4000 viz. a value capable of giving 4000 peripheral leucocytes per mm^3 (about half of the corresponding value in normal mice) was obtained.

Data set [2] is described as follows: in vivo. The conditions noted are these: mouse, ip, single abdominal administration, ddy mice, 14 days, Behrens-Korber's method.
From the text: as §1, §2

A further data set deals with Hela S3 cultured cells. In words: Effects upon Hela S3 cultured cells. Type of data set: cell-based. The conditions noted are these: Homo sapiens. How it is done:
Table 3 indicates the effects of typical Compounds (I) against Hela S3 culture cells. In this table, IC50 denotes the concentration of the test compound capable of reducing the number of cells to 50% the number of untreated cells.
Cultured cells of Hela S3 were added to a MEM medium containing 10% (V/V) of bovine fetal serum and […] of glutamine to obtain a cell suspension of 3×10^4 cells/ml. The cell suspension was poured into each well (1 ml/well) of a 24 well-multiplate for culturing at 37° C. in an incubator containing carbon dioxide (5%) and air (95%). After 24 hours, samples were dissolved or suspended in PBS, ethanol or dimethylsulfoxide and added to the medium at different concentrations, followed by culturing at 37° C. for 72 hours in the same incubator. An aspirator was used to collect the medium from each well. The surface of each medium was washed by adding PBS (1 ml) gently, and then PBS was sucked out. PBS containing trypsin (0.05%) and EDTA (0.02%) was poured into each well. After pipetting, the number of cells in each suspension was counted by the use of a microcell counter (commercial product of Toa Iyo Denshi K.K., Japan). By reference to a curve showing the concentration vs. the number of cells, the IC50 (concentration of sample capable of reducing the number of cells to 50% of the number of control untreated cells) was measured.

[3] abbreviates: concentration reducing number of Hela S3 cells to 50% of untreated, 72 hours at 37° C., read-out: IC50.

Consider `CO[C@@]12[C@H](COC(N)=O)c3c(O)c(N=O)c(C)c(O)c3N1C[C@@H]1N[C@@H]12` [Example 1, [1aS-(1aα,8β,8aα,8bα)]-8-{[(aminocarbonyl)oxy]methyl}-4,7-dihydroxy-1,1a,2,8,8a,8b-hexahydro-8a-methoxy-5-methyl-6-nitroso-azirino[2',3':3,4]pyrrolo[1,2-a]indole], for which the “C.I. (chemotherapeutic index)” value in the data set on Sarcoma 180 solid tumour is 2.0. In addition, the selectivity ratio in the data set “in vivo [1]” stood at 0.7. This molecule also gave an LD50 at 336 h in the data set “in vivo [2]” of 53 mg/kg. The IC50 in the data set on Hela S3 cultured cells (HeLa S3, 72 h) amounted to 1.14 mg/L (≈ 3.24 µM).
Consider `CO[C@@]12[C@H](CO)c3c(O)c(N=O)c(C)c(O)c3N1C[C@@H]1N[C@@H]12` [Example 4, [1aS-(1aα, 8β, 8aα, 8bα)]-4,7-dihydroxy-1,1a,2,8,8a,8b-hexahydro-8-hydroxymethyl-8a-methoxy-5-methyl-6-nitroso-azirino [2',3':3,4]pyrrolo[1,2-a]indole], for which the “C.I. (chemotherapeutic index)” value with Sarcoma 180 solid tumour was found to be 2.8. Further, the selectivity ratio in “in vivo [1]” was above 1.4. The molecule further yielded an LD50 at 336 h in “in vivo [2]” of 100 mg/kg.
In the case of `COc1c(C)c(N=O)c(O)c2c1N1C[C@@H]3N[C@@H]3[C@]1(OC)[C@@H]2COC(N)=O` [Example 6], the “C.I. (chemotherapeutic index)” value in the data set with Sarcoma 180 solid tumour was 5.6. Also, the selectivity ratio in the data set “in vivo [1]” amounted to 2.7. In addition, the LD50 at 336 h in the data set “in vivo [2]” was found to be 75 mg/kg. The molecule also returned an IC50 in the data set with Hela S3 cultured cells (HeLa S3, 72 h) of 0.005 mg/L (≈ 0.0137 µM).
As to `COc1c(C)c(N=O)c(O)c2c1N1C[C@H]3[C@H](N3C)[C@]1(OC)[C@@H]2COC(N)=O` (stereo partly drawn) [Example 7, [1aS-(1aα, 8α, 8aα, 8bα)]-8-{[(aminocarbonyl)oxy]methyl}-4,8a-dimethoxy-1,5-dimethyl-1,1a,2,8,8a,8b-hexahydro-7-hydroxy-6-nitroso-azirino-[2',3':3,4]-pyrrolo[1,2-a]indole], the IC50 in the data set on Hela S3 cultured cells (HeLa S3, 72 h) worked out at 0.013 mg/L (≈ 0.0344 µM).
Turning to `COc1c(N=O)c(C)c(OC)c2c1[C@@H](COC(N)=O)[C@@]1(OC)[C@H]3N[C@H]3CN21` [Example 8, [1aS-(1aα, 8β, 8aα, 8bα)]-8-{[(aminocarbonyl)oxy]methyl}-1,1a,2,8,8a,8b-hexahydro-5-methyl-6-nitroso-4,7,8a-trimethoxy-azirino [2',3':3,4]pyrrolo[1,2-a]indole], in the data set on Sarcoma 180 solid tumour, the “C.I. (chemotherapeutic index)” value came to 2.1. In addition, the selectivity ratio in “in vivo [1]” was determined as 1.1. This molecule also displayed an LD50 at 336 h in the data set “in vivo [2]” of 100 mg/kg. Further, the IC50 in the data set with Hela S3 cultured cells (HeLa S3, 72 h) turned out to be 0.2 mg/L (≈ 0.529 µM).
For the molecule `COc1c(C)c(N=O)c(O)c2c1N1C[C@@H]3N[C@@H]3[C@]1(OC)[C@@H]2CO` [Example 9, [1aS-(1aα, 8β, 8aα, 8bα)]-4,8a-dimethoxy-1,1a,2,8,8a,8b-hexahydro-7-hydroxy-8-hydroxymethyl-5-methyl-6-nitroso-azirino[2',3':3,4]pyrrolo [1,2-a]indole], in the data set on Hela S3 cultured cells (HeLa S3, 72 h), half-maximal inhibition (IC50) was put at 0.005 mg/L (≈ 0.0156 µM).
Take `COc1c(C)c(N=O)c(O)c2c1N1C[C@H]3[C@H](N3C)[C@]1(O)[C@H]2COC(N)=O` (stereo partly shown) [Example 10]: in the data set on Sarcoma 180 solid tumour, the “C.I. (chemotherapeutic index)” value is above 0.56. Besides, the selectivity ratio in the data set “in vivo [1]” was above 0.56. In the data set “in vivo [2]”, this molecule gave an LD50 at 336 h above 100 mg/kg. In the data set with Hela S3 cultured cells (HeLa S3, 72 h), this molecule gave an IC50 of 0.004 mg/L (≈ 0.011 µM).
Turning to `CO[C@@]12[C@H](COC(N)=O)c3c(O)c(N=O)c(C)c(OC(C)=O)c3N1C[C@H]1[C@@H]2N1C(C)=O` [Example 11, [1aS-(1aα, 8β, 8aα, 8bα)]-1-acetyl-4-acetyloxy-8-{[(aminocarbonyl)oxy]methyl}-1,1a,2,8,8a,8b-hexahydro-7-hydroxy-8a-methoxy-5-methyl-6-nitroso-azirino[2',3':3,4]pyrrolo[1,2-a]indole], the “C.I. (chemotherapeutic index)” value with Sarcoma 180 solid tumour worked out at 2.0. In “in vivo [1]”, the selectivity ratio was determined as 0.9. Also, the LD50 at 336 h in the data set “in vivo [2]” turned out to be 38 mg/kg. Besides, in the data set on Hela S3 cultured cells (setting [3]), the IC50 was found to be 0.02 mg/L (≈ 0.046 µM).
In the case of `CO[C@@]12[C@H](COC(N)=O)c3c(O)c(N=O)c(C)c(OCC(C)C)c3N1C[C@@H]1N[C@@H]12` [Example 13, [1aS-(1aα, 8β, 8aα, 8bα)]-8-{[(aminocarbonyl)oxy]methyl}-1,1a,2,8,8a,8b-hexahydro-7-hydroxy-4-isobutyloxy-8a-methoxy-5-methyl-6-nitroso-azirino[2',3':3,4]pyrrolo[1,2-a]indole], the “C.I. (chemotherapeutic index)” value in the data set with Sarcoma 180 solid tumour is reported as above 0.74. Moreover, the selectivity ratio in “in vivo [1]” was above 0.74. The molecule further registered an LD50 at 336 h in “in vivo [2]” above 100 mg/kg.
Regarding `CO[C@@]12[C@H](COC(N)=O)c3c(O)c(N=O)c(C)c(OS(=O)(=O)c4ccc(C)cc4)c3N1C[C@@H]1N[C@@H]12` [Example 15, [1aS-(1aα,8β,8aα,8bα)]-8-{[(aminocarbonyl)oxy]methyl}-1,1a,2,8,8a,8b-hexahydro-7-hydroxy-8a-methoxy-5-methyl-6-nitroso-4-[(p-toluenesuIfonyl)oxy]azirino[2',3':3,4]pyrrolo[1,2-a]indole], the “C.I. (chemotherapeutic index)” value in the data set with Sarcoma 180 solid tumour is reported as 2.6. In addition, in the data set “in vivo [1]”, the selectivity ratio amounted to 3.9. This molecule showed an LD50 at 336 h in “in vivo [2]” of 56 mg/kg. The same molecule gave an IC50 with Hela S3 cultured cells (HeLa S3, 72 h) of 0.027 mg/L (≈ 0.0535 µM).
`CO[C@@]12[C@H](COC(N)=O)c3c(O)c(N=NC(=O)c4ccccc4)c(C)c(O)c3N1C[C@@H]1N[C@@H]12` [Example 17, [1aS-(1aα,8β,8aα,8bα)]-8-{[(aminocarbonyl)oxy]methyl}-6-[(benzoyl)azo-]-4,7-dihydroxy-1,1a,2,8,8a,8b-hexahydro-8a-methoxy-5-methyl-azirino-[2',3':3,4]pyrrolo[1,2-a]indole] showed an IC50 with Hela S3 cultured cells (HeLa S3, 72 h) of 14.9 mg/L (≈ 32.9 µM).
As to `CO[C@@]12[C@H](COC(N)=O)c3c(O)c(N=NC(C)=O)c(C)c(O)c3N1C[C@@H]1N[C@@H]12` [Example 18, [1aS-(1aα,8β,8aα,8bα)]-6-[(acetyl)azo]-8-{[(aminocarbonyl)oxy]methyl}-4,7-dihydroxy-1,1a,2,8,8a,8b-hexahydro-8a-methoxy-5-methyl-azirino[2',3':3,4]pyrrolo[1,2-a]indole], 0.54 mg/L (≈ 1.38 µM) corresponded to half-maximal inhibition with Hela S3 cultured cells (HeLa S3, 72 h) (IC50).
For the molecule `CO[C@@]12[C@H](CO)c3c(O)c(N=NC(=O)c4ccccc4)c(C)c(O)c3N1C[C@H]1[C@@H]2N1C` (stereo partly drawn) [Example 22, [1aS-(1aα,8β,8aα,8bα)]-6-[(benzoyl)azo]-4,7-dihydroxy-1,5-dimethyl-1,1a,2,8,8a,8b-hexahydro-8-hydroxymethyl-8a-methoxy-azirino-[2',3':3,4[pyrrolo]1,2-a]indole], the IC50 in the data set on Hela S3 cultured cells (HeLa S3, 72 h) came out at 0.131 mg/L (≈ 0.309 µM).
For `COC(=O)N=Nc1c(C)c(O)c2c(c1O)[C@@H](COC(N)=O)[C@@]1(OC)[C@H]3N[C@H]3CN21` [Example 24], the LD50 at 336 h in “in vivo [2]” is above 100 mg/kg. In addition, in the data set with Hela S3 cultured cells (HeLa S3, 72 h), it took 0.012 mg/L (≈ 0.0295 µM) to reach half-maximal inhibition (IC50).
In the data set with Hela S3 cultured cells (HeLa S3, 72 h), `CO[C@@]12[C@H](COC(N)=O)c3c(O)c(N=NC(N)=O)c(C)c(O)c3N1C[C@@H]1N[C@@H]12` [Example 25] displayed an IC50 of 0.003 mg/L (≈ 0.00765 µM).
On to `CO[C@@]12[C@H](COC(N)=O)c3c(O)c(N=NC(=O)c4ccccc4O)c(C)c(O)c3N1C[C@@H]1N[C@@H]12` [Example 28, [1aS-(1aα,8β,8aα,8bα)]-8-{[(aminocarbonyl)oxy]methyl}-4,7-dihydroxy-1,1a,2,8,8a,8b-hexahydro-6-[(2"-hydroxybenzoyl)azo]-8a-methoxy-5-methyl-azirino [2',3':3,4]pyrrolo[1,2-a]indole], for which the IC50 in the data set on Hela S3 cultured cells (HeLa S3, 72 h) came to 0.08 mg/L (≈ 0.17 µM).
As for `CO[C@@]12[C@H](COC(N)=O)c3c(O)c(N=NC(=S)SC)c(C)c(O)c3N1C[C@@H]1N[C@@H]12` [Example 31], the “C.I. (chemotherapeutic index)” value in the data set with Sarcoma 180 solid tumour is reported as 2.5. The selectivity ratio in “in vivo [1]” came out at 1.1. The LD50 at 336 h in “in vivo [2]” is 50 mg/kg.
As to `CO[C@@]12[C@H](COC(N)=O)C3=C(C(=O)C(C)=C(N)C3=O)N1C[C@@H]1N[C@@H]12` [mitomycin C, reference compound], the IC50 in the data set with Hela S3 cultured cells (setting [3]) turned out to be 0.004 mg/L (≈ 0.012 µM).
